Our source for the IC50 values is US9376418B2, “Substituted pyridine spleen tyrosine kinase (SYK) inhibitors” (Merck Sharp & Dohme Corp., priority 2012, dated 2016).

Some results are limits rather than exact numbers.

This assay addresses T1, recombinant human GST-SYK (Homo sapiens, UniProt P43405).
T1 construct: purchased Carna Biosciences 08-176
The assay is described as follows: Homogeneous Time-Resolved Fluorescence (HTRF) assay for the recombinant human Syk enzyme. It is filed as biochemical. The note with it: HTRF assay, recombinant human GST-SYK; IC50 given as class symbols; read-out: rhSYK Activity. Put shortly:
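GST-hSYK ([…]) was preincubated with inhibitor (0.1% DMSO final) for 10 minutes at room temperature in 15 mM Tris-HCl pH 7.5, 0.01% tween 20, 2 mM DTT. Biotinylated peptide (250 nM), 5 mM magnesium and 25 μM ATP started a 45-minute room-temperature reaction, read by time-resolved fluorescence.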
(TR-FRET usually uses a lanthanide donor and a delayed reading to cut background.)
For `Cc1cc(Nc2nccc(C(F)(F)F)n2)cc(-c2cncc(CO)c2)c1` [Example 2.66, [5-(3-methyl-5-{[4-(trifluoromethyl)pyrimidin-2-yl]amino}phenyl)pyridin-3-yl]methanol], the IC50 was under 100 nM. `COc1ccnc(Nc2cc(C)cc(-c3ccc([C@]4(O)CC[C@H](C(=O)O)CC4)nc3)c2)n1` [Example 9.36, trans-4-hydroxy-4-(5-{3-[(4-methoxypyrimidin-2-yl)amino]-5-methylphenyl}pyridin-2-yl)cyclohexanecarboxylic acid]: the IC50 is under 100 nM. Next, `Cc1cc(Nc2nccc(C(F)(F)F)n2)cc(-c2ccc(N3CCCC3C(N)=O)nc2)c1` (racemic) [Example 7.38, 1-[5-(3-methyl-5-{[4-(trifluoromethyl)pyrimidin-2-yl]amino}phenyl)pyridin-2-yl]prolinamide]: under 100 nM. The result for `CC(=O)N1CCN(c2cc(-c3cc(C)cc(Nc4nccc(C(F)(F)F)n4)c3)ccn2)CC1` [Example 15.23, 1-{4-[4-(3-Methyl-5-{[4-(trifluoromethyl)pyrimidin-2-yl]amino}phenyl)pyridin-2-yl]piperazin-1-yl}ethanone] reads under 100 nM; that for `Cc1cc(Nc2nccc(C(F)(F)F)n2)cc(-c2ccc(N[C@H](Cc3c[nH]c4ccccc34)C(=O)O)nc2)c1` [Example 7.99, N-[5-(3-methyl-5-{[4-(trifluoromethyl)pyrimidin-2-yl]amino}phenyl)pyridin-2-yl]-D-tryptophan], under 100 nM. The result for `Cc1cc(Nc2nccc(C(F)(F)F)n2)cc(-c2ccc(NCC(O)C(F)F)nc2)c1` (stereo not drawn) [Example 7.17, 1,1-difluoro-3-{[5-(3-methyl-5-{[4-(trifluoromethyl)pyrimidin-2-yl]amino}phenyl)pyridin-2-yl]amino}propan-2-ol] reads under 100 nM; that for `CCC(C)(C#N)Nc1ccc(-c2cc(C)cc(Nc3nccc(C(F)(F)F)n3)c2)cn1` (stereo not drawn) [Example 7.118, 2-methyl-2-{[5-(3-methyl-5-{[4-(trifluoromethyl)pyrimidin-2-yl]amino}phenyl)pyridin-2-yl]amino}butanenitrile], under 100 nM. `Cc1cc(Nc2nccc(C(F)(F)F)n2)cc(-c2ccnc(N3CCC4(CCCC(=O)N4)CC3)c2)c1` [Example 15.25, 9-[4-(3-methyl-5-{[4-(trifluoromethyl)pyrimidin-2-yl]amino}phenyl)pyridin-2-yl]-1,9-diazaspiro[5.5]undecan-2-one]: the IC50 was in the range of 100 to 1000 nM. The result for `Cc1cc(Nc2nccc(C(F)(F)F)n2)cc(-c2ccnc(N3CCNC(=O)CC3)c2)c1` [Example 15.42, 1-[4-(3-methyl-5-{[4-(trifluoromethyl)pyrimidin-2-yl]amino}phenyl)pyridin-2-yl]-1,4-diazepan-5-one] reads under 100 nM; that for `CCCCOC(=O)C1CCC(C(C)(O)c2ccc(-c3cc(C)cc(Nc4nccc(C(F)F)n4)c3)cn2)CC1` (single isomer, unassigned) [Example 9.51, butyl trans-4-{(1R or 1S)-1-[5-(3-{[4-(difluoromethyl)pyrimidin-2-yl]amino}-5-methylphenyl)pyridin-2-yl]-1-hydroxyethyl}cyclohexanecarboxylate], 100 to 1000 nM; that for `CCCCOC(=O)[C@H]1CC[C@H](C(C)(O)c2ccc(-c3cc(C)cc(Nc4nccc(C5CC5)n4)c3)cn2)CC1` (relative stereo) [Example 9.48, butyl trans-4-[1-(5-{3-[(4-cyclopropylpyrimidin-2-yl)amino]-5-methylphenyl}pyridin-2-yl)-1-hydroxyethyl]cyclohexanecarboxylate], 100 to 1000 nM. For `Cc1cc(Nc2nccc(C(F)(F)F)n2)cc(-c2ccc(NCC(=O)N(C)C)nc2)c1` [Example 7.66, N,N-dimethyl-N~2~-[5-(3-methyl-5-{[4-(trifluoromethyl)pyrimidin-2-yl]amino}phenyl)pyridin-2-yl]glycinamide], the IC50 is under 100 nM.
